Laboratory results taken from ChEMBL document CHEMBL3137356, “MMV Box Cryptosporidium parvum screening set”.

System: Cryptosporidium parvum
Assay: MMV: Cryptosporidium parvum oocysts (Iowa Strain) were prepared for use by treatment with 10 mM HCl (37 degrees C, 10 min) followed by 2 mM sodium taurocholate in phosphate-buffered saline (PBS) with Ca2+ and Mg2+ (16 degrees C, 10 min) in order to stimulate excystation. The high-throughput screen was carried out by inoculating >90% confluent human ileocecal adenocarcinoma (HCT-8) cells (ATCC) with ~5.5 x 10^3 primed oocysts per well. Experimental compounds or DMSO (vehicle) were added three hours after infection, and cells were incubated for 48 hours.
Type: functional

C[n+]1c2ccccc2nc2ccc(NCCO)cc21
Inhibition: -27.1%

O=C(Nc1ccccc1O)c1ccc(Oc2cccc(C(=O)Nc3ccccc3O)c2)cc1
Inhibition: -14.93%

Cc1ccc(-c2cc3c(nn2)-c2ccccc2C3=O)cc1
Inhibition: -55.29%

Cc1ccc(Nc2nc(-c3ccccn3)cs2)cc1
Inhibition: -19.75%

Cl.N=c1n(CCN2CCCCC2)c2ccccc2n1CC(O)c1cccc(Br)c1 (stereo unspecified)
Inhibition: 3.872%

COc1cccc(O)c1CN1CCC2(CCCN(Cc3ccc(F)cc3)C2)C1 (stereo unspecified)
Inhibition: 46%

COc1cccc(Nc2nc(NCCO)c3ccccc3n2)c1.Cl
Inhibition: 65.39%

Cc1ccc(-c2cc(C(=O)Nc3ccc(S(=O)(=O)N4CCCCC4)cc3)[nH]n2)c(O)c1
Inhibition: -59.17%

O=C(NCc1ccco1)C1CCN(S(=O)(=O)c2ccc(Cl)cc2)CC1
Inhibition: -53.31%

COc1ccc(C(=O)Nc2ccc3nc(N4CCCCC4)cc(C)c3c2)cc1OC
Inhibition: 6.852%

COc1ccc(N2CCN(C(CNC(=O)C3CCCCC3)c3ccc4c(c3)OCO4)CC2)cc1 (stereo unspecified)
Inhibition: -25.24%

FC(F)(F)c1ccc(Nc2nnnc3ccccc23)cc1
Inhibition: -4.73%

c1ccc(-c2ccc(-c3nc4ccccc4[nH]3)cc2)cc1
Inhibition: 27.1%

CCC(C)NCC(O)(c1ccc(Cl)cc1)c1ccc(Cl)cc1 (stereo unspecified)
Inhibition: -5.937%

COc1cccc(NC(=O)Cn2c(C)c(C#N)c3ccccc32)c1
Inhibition: 14.16%

Cn1c(=O)c2cc(C(=O)NCCCN3CCCCCC3)sc2c2ccccc21
Inhibition: -13.68%

Cc1[nH]c(-c2ccc(F)cc2)cc1C(=O)NC1CCN(Cc2ccccc2)CC1
Inhibition: -23.5%

COc1ccc(CCN2CCC(CN(C)Cc3cnn(-c4ccccc4)c3)CC2)cc1
Inhibition: -0.7856%

O=C(NC(c1ccccc1)c1ccc2cccnc2c1O)c1ccccc1 (stereo unspecified)
Inhibition: 59.29%

COCCNC(=O)c1ccc(OC2CCN(Cc3ccc(F)c(F)c3)CC2)c(Cl)c1
Inhibition: 10.52%

CCOc1cc(Br)c(C(C)NC(=O)c2cccc(OC)c2)cc1OCC (stereo unspecified)
Inhibition: -25.9%

CC(C)=CCN1CCC(C(=O)Nc2ccc(-c3nc4ccccc4[nH]3)cc2)CC1
Inhibition: -41.53%

CCOc1cc(Cl)c(C(C)NC(=O)c2cccc(OC)c2)cc1OCC (stereo unspecified)
Inhibition: -11.62%

O=C(CCc1ccco1)NC1CCN(CC2(c3ccc(Cl)cc3)CCC2)CC1
Inhibition: -27.18%

FC(F)(F)c1cccc(Nc2nc(-c3ccccc3)nc3ncccc23)c1
Inhibition: -10.43%

CCN1CCN(c2cc(C)c3cc(NC(=O)c4ccc(OC)c(OC)c4)ccc3n2)CC1
Inhibition: -21.17%

Cc1ccc(Cl)cc1N1CCN(CCCNC(=O)C2CCN(c3nc4ccccc4[nH]3)CC2)CC1
Inhibition: -53.53%

COc1ccc(C(=O)Nc2nonc2-c2ccc(OC)c(OC)c2)cc1Cl
Inhibition: 4.722%

COc1ccc(CNC2CCN(c3ccc(NC(=O)c4cccc(Cl)c4)cc3)CC2)cc1OC
Inhibition: -38.21%

COCCN(C(=O)Cc1cccs1)C(C(=O)NCc1ccc(OC)cc1)c1ccc(C(C)C)cc1 (stereo unspecified)
Inhibition: 3.107%

Cc1ccc(CSCc2ccc(C(=O)NC3CC3)o2)cc1
Inhibition: -11.49%

CC(NCc1ccccc1)c1cc(Cl)ccc1O (stereo unspecified)
Inhibition: -51.25%

FC(F)(F)c1cccc(CNC2CCN(CCc3ccccc3)CC2)c1
Inhibition: -52.87%

Oc1ccc(Cl)cc1CNc1nc2ccccc2[nH]1
Inhibition: -2.947%

CCOc1cc(Cl)c(C(C)NC(=O)c2ccccc2)cc1OCC (stereo unspecified)
Inhibition: 5.189%

O=C(c1ccccc1F)N(Cc1ccc(Cl)cc1)c1ccccn1
Inhibition: -0.1452%

COc1ccc(C(=O)Nc2ccc(Cl)cc2C(=O)Nc2ccncc2)cc1
Inhibition: -23.38%

O=C(Nc1ccc(CN2CCOCC2)cc1)c1ccc(-c2ccc(Br)cc2)o1
Inhibition: 0.1242%

CC(=O)NCCc1nc2ccccc2n1Cc1ccc(C(C)C)cc1
Inhibition: 0.2505%

O=C(Nc1ccc(Cl)cc1)N1CCN(c2ccc3nncn3n2)CC1
Inhibition: 64.92%

CN(C)c1ccc(-c2nc3cc(N)ccc3[nH]2)cc1
Inhibition: -41.71%

O=C(CSc1ccc2nnc(-c3cccc(F)c3)n2n1)Nc1ccc2c(c1)OCO2
Inhibition: -19.97%

Cc1c(C)n(Cc2ccc(F)cc2)c2ccc(C(=O)NCc3ccco3)cc12
Inhibition: -17.08%

CCN(CC)c1ccc(NC(=O)c2cccs2)cc1
Inhibition: -55.73%

CCCCNCC(O)(c1ccc(Cl)cc1)c1ccc(Cl)cc1
Inhibition: 9.548%

CCCC(c1nnnn1C1CCCCC1)N1CCN(C(=O)c2ccco2)CC1.Cl (stereo unspecified)
Inhibition: -55.52%

COc1cccc(-c2nn(C)c3sc(C(=O)NCCN4CCN(c5ccccc5F)CC4)cc23)c1
Inhibition: 60.49%

Cc1ccc(CN2CCC(C(=O)Nc3ccc(-c4cc5ccccc5[nH]4)cc3)CC2)o1
Inhibition: 45.39%

Cc1cc(C)c2nc(N3CCC(C(=O)NCCCN4CCC(N5CCCCC5)CC4)CC3)sc2c1
Inhibition: -56.98%

CCn1c(SCC(=O)Nc2cc(C(F)(F)F)ccc2Cl)nc2ccccc2c1=O
Inhibition: -35.13%

Cc1ccc(Cn2c(N3CCC(C(=O)NCc4cccs4)CC3)nc3ccccc32)cc1
Inhibition: -4.981%

O=C(Nc1ccsc1C(=O)NC1CCCCC1)c1ccc(F)cc1
Inhibition: -24.81%

O=C(Nc1ccc(Cl)cc1C(=O)Nc1ccncc1)c1ccc(Cl)cc1Cl
Inhibition: -3.564%

O=C(Nc1cccc(C(F)(F)F)c1)c1cc(Cl)ccc1O
Inhibition: 41.48%

CCOc1cccc2sc(N(Cc3cccnc3)C(=O)C3CCCCC3)nc12
Inhibition: -38.34%

COc1ccccc1CNC(=O)C1c2ccccc2C(=O)N(CC(C)C)C1c1cccs1 (stereo unspecified)
Inhibition: 58.94%

CCOc1ccc(-c2nonc2NC(=O)c2cccc(C)c2)cc1OCC
Inhibition: 2.223%

CCN(CC)c1cc(C)c2cc(NC(=O)c3cccc(OC)c3)ccc2n1
Inhibition: -27.53%

CC(C)(C)CC(C)(C)NCC(O)COc1ccc2c(c1)CCC2.Cl (stereo unspecified)
Inhibition: -49.34%

CCOc1ccc(/C=C/c2nc(=O)c3ccccc3o2)cc1
Inhibition: -0.2946%

O=C(Nc1ccccc1O)c1ccc(-c2ccc(Cl)cc2Cl)o1
Inhibition: -8.773%

O=C(Nc1nc(-c2ccccn2)cs1)c1ccccc1Br
Inhibition: 62.15%

O=C(Nc1ccc(F)c(Cl)c1)Nc1ccc(Cl)c(Cl)c1
Inhibition: 36.98%

CC(O)(c1ccc(Cl)cc1)C(CN1CCCCC1)c1ccccc1.Cl (stereo unspecified)
Inhibition: 15.77%

CCCCc1ccc(NS(=O)(=O)c2cc3c4c(c2)CCN4C(=O)CC3)cc1
Inhibition: 4.064%

CCOc1ccc(-c2nc(NC(=O)c3cccc(S(C)(=O)=O)c3)sc2C)cc1
Inhibition: 26.25%

CCOc1ccccc1CNC(=O)C1c2ccccc2C(=O)N(CC(C)C)C1c1cccs1 (stereo unspecified)
Inhibition: -30.75%

COc1ccccc1N1CCN(C(CNS(=O)(=O)c2ccc(Cl)cc2)c2cccnc2)CC1 (stereo unspecified)
Inhibition: 38.78%

CCCc1c(C)nc2ccccc2c1O
Inhibition: -14.82%

CCOc1c(Cl)cc(CNC(C)C(O)c2ccccc2)cc1OC (stereo unspecified)
Inhibition: -2.917%

COc1ccc(C2Sc3ccccc3N=C3C2=C(O)c2ccccc23)cc1 (stereo unspecified)
Inhibition: 19.55%

CCN(CC)CCCNc1nc(-c2ccc(Cl)cc2)nc2ccccc12
Inhibition: -30.51%

CN1c2ccccc2N(C)C1c1ccc2c(c1)OCO2
Inhibition: -58.41%

O=C(NCC1Cc2cccc(-c3ccncc3)c2O1)c1csc2c1CCCC2 (stereo unspecified)
Inhibition: 13.55%

CC1CCCCN1CCCNC(=O)c1ccc2c(c1)sc1nc(-c3ccc(F)cc3)cn12 (stereo unspecified)
Inhibition: 7.741%

C=C(C)CCC(C)N1CCC(N2CCC(C(=O)NCCc3ccccc3)CC2)CC1 (stereo unspecified)
Inhibition: -27.27%
